The source of these data is a melting point compilation (Tetko et al.; mined from patent text by program, amines drawn as free bases though some values may be those of a salt).

In general, melting point refers to the temperature of the solid-liquid transition.

In the case of `O=C(Nc1ccc(C(=O)N2CCCCc3sccc32)cc1)c1ccc(Cl)c(Cl)c1`, the melting point was in the range of 154 to 160 °C.
Turning to `COc1ccc(C=CC(=O)O)cc1-c1cc2c(cc1OCCN1CCCCC1)C(C)(C)CCC2(C)C`, the melting point fell in the range of 251 to 253 °C.
With `Cc1cccc(S(=O)(=O)n2cccn2)c1C#N`, the melting point lay in the range of 99 to 104 °C.
The molecule `C#CCNC1=NS(=O)(=O)N=C1NCCSCc1nc[nH]c1C` registered a melting point of 82 to 103 °C.
Under `CCSCCn1cc(C(=O)NCc2ccc(Cl)cc2)c(=O)c2cc(CN3CCOCC3)ccc21` stands 140 to 142 °C; under `Nc1c(N=O)c(=O)n(CC2CC2)c(=O)n1CC1CC1`, 228 to 229 °C.
Under `COc1ccc(CNc2c3c(nc4ccccc24)CCCC3O)cc1` (stereo not drawn) stands 163 to 165 °C.
Under `CCCCCCCCCCNC(CCCNC(=N)N)C(=O)O` (stereo not drawn) stands 100 °C; under `COc1cc(OC)nc(C(=O)NS(=O)(=O)CC(C)C)n1`, 128 to 130 °C.
Molecule `N#Cc1cc([N+](=O)[O-])cc(C#N)c1O` displayed a melting point of 228 to 231 °C.
Under `C=CCN(C(C)=O)c1cccc(-c2ccc3nncn3n2)c1` stands 139 to 142 °C; under `CC1(C)C2CCC1(CCBr)CC2`, 68 to 71 °C; under `CC(C)(C)OC(=O)N1CCCC(c2ccc3c(c2)C2(CO3)C(=O)Nc3ccccc32)C1` (stereo not drawn), 120 to 123 °C.
`CCOC(=O)/C(=N\OCC=C(Cl)Cl)c1csc(N)n1` had a melting point of 135 to 136 °C.
Molecule `CC(c1ccc(I)cc1)C(O)(Cn1cncn1)c1ccc(F)cc1F` (stereo not drawn) registered a melting point of 169 to 171 °C.
Regarding `O=c1[nH]c(=O)n2c3c(cccc13)CC2`, the melting point lay in the range of 314 to 315 °C.
Under `COC(=O)c1ccccc1C1(c2ccccc2)OCC(CCl)O1` (stereo not drawn) stands 90 to 91 °C; under `CC(C)(O)C(C)(O)Cc1ccccc1` (stereo not drawn), 72 to 74 °C.
In turn, `C=CC=C1SC(=S)N(CC(=O)O)C1=O` gave a melting point of 144 to 146 °C.
In turn, `CCn1ncnc1COc1nn2c(-c3ccc(F)cc3F)nncc2c1C(C)(C)C` yielded a melting point of 145 °C.
Under `CC(=NOCCOc1ccc(CC2SC(=O)NC2=O)cc1)c1ccc(-c2ccc(C(F)(F)F)cc2)cc1` (stereo not drawn) stands 165 to 166 °C; under `Nc1nc2ccccc2c2c1ncn2Cc1ccncc1`, greater than 300 °C.
Under `Cc1nccc(N)c1N` stands 170 to 171 °C; under `CC(=O)N1N=C(c2ccc(N)c(C)c2)c2cc(Cl)ccc2C=C1C`, 209 to 211 °C; under `OCC(O)COc1noc2ccc(Cl)cc12` (stereo not drawn), 61 to 62 °C.
Under `O=C(c1ccc(S(=O)(=O)c2ccc3cc(Cl)ccc3c2)cc1)N1CCN(c2ccncc2)CC1` stands 267 to 269 °C; under `Cc1nnc(CNC(=O)CN(C)C)n1-c1ccc(Cl)cc1C(=O)c1ccccc1`, 176 to 178 °C.
In turn, `O=C(c1ccc(F)cc1)N1CC2CC2(c2ccccc2)C1` (stereo not drawn) registered a melting point of 101 to 103 °C.
Regarding `CC(=S)NC[C@H]1CN(c2ccc3c(c2)CCCc2cnoc2-3)C(=O)O1`, the melting point was 185 to 195 °C.
Under `Cc1ccnc(N2CCN(CCc3c(C)n4c5c(cc(O)cc35)CCC4)CC2)c1` stands 110 °C.
For `CSc1cc2ccccc2cc1C=Cc1cc2ccccc2cc1SC` the value was 195 to 196 °C.
`O=C(c1ccco1)N1CCN(c2cc(-c3ccccc3)c3c(n2)CCCC3)CC1` registered a melting point of 128 to 130 °C.
Take `CCN(CC)C(=O)Oc1cc(-c2ccccc2)nc2ccc([N+](=O)[O-])cc12`: the melting point was 40 °C.
In turn, `COc1ccc(C(=O)Nc2c(Cl)cncc2Cl)c2c3ccccc3n(Cc3ccc(F)cc3)c12` came in with a melting point of 222 to 225 °C.
The molecule `CCCC[Si](C)(C)CCSCCNC(=O)n1cc(F)c(=O)[nH]c1=O` came in with a melting point of 71 to 72 °C.
`N#Cc1c(C(=O)O)cnn1-c1ccc(Cl)cc1` had a melting point of 192 to 195 °C.
Under `Nc1ccc(S(=O)(=O)Nc2nnc(S(N)(=O)=O)s2)cc1` stands 241 to 242 °C; under `O=S(=O)(CCCCl)Nc1cccc(COc2cccc3cccnc23)c1`, 142 to 143 °C; under `CC(C)Sc1cccc(-c2nc(=O)c3ccccc3s2)n1`, 185 to 186 °C.
Under `O=[N+]([O-])c1cc(-c2ccccc2)ccc1Cl` stands 43 to 44 °C; under `CN1C=C2c3ccccc3Cc3ccccc3C2C1` (stereo not drawn), 128 to 131 °C; under `CN1CCN(C2=Nc3ccccc3S(=O)(=O)N2)CC1`, 265 to 267 °C.
`CCOC(=O)c1cc(=O)c2cc(OCC(O)COc3ccc(C#N)cc3)ccc2o1` (stereo not drawn): the melting point lay in the range of 150 to 152 °C.
Under `N#Cc1c(N2CCN(C(=O)c3cccs3)CC2)c2cc(Cl)cnc2n(Cc2cccc(F)c2)c1=O` stands 204 °C.
Under `c1ccc2c(c1)CC1=C2CCCC1` stands 57 °C; under `CNc1nc(N)nc(N)n1`, 269 °C; under `COC(=O)c1ccc(OC)c([N+](=O)[O-])c1O`, 185 to 187 °C.
Under `Cc1ccc2nc(NC3=NCCN3)[nH]c2c1` stands 264 to 266 °C; under `CNc1nc(-c2cccc(Br)c2)c2cc(OC)c(OC)cc2n1`, 246 to 248 °C.
Take `CCC(O)C#Cc1ccc2c(=O)c(-c3ncc[nH]3)c(N)n(CC3CC3)c2n1` (stereo not drawn): the melting point came to 252 °C.
For `O=C(O)Cc1cc2c(s1)-c1ccccc1CC2` the value was 103 to 105 °C; for `CCOc1ccc2c(Nc3ccc(Cl)cc3F)c(C#N)cnc2c1`, 221 to 224 °C.
Under `Nc1ncc(C2OC(CO)C(O)C2O)c(Cl)n1` (stereo not drawn) stands 195 to 197 °C; under `Cc1nn(CC(F)COCc2ccccc2)c(-c2ccc(F)cc2)c1-c1ccc2c(c1)NC(=O)CO2` (stereo not drawn), 138 to 140 °C; under `CC1CC(=O)NN=C1c1ccc(NC(=O)OC(C)C2CC2)cc1` (stereo not drawn), 223 to 224 °C.
`c1ccc(CNc2nc(-c3ccco3)nc3ccccc23)cc1` had a melting point of 152 to 154 °C.
Under `Cc1cc(C2=NNC(C)Cc3cc4c(cc32)OCO4)ccc1[N+](=O)[O-]` (stereo not drawn) stands 144 to 147 °C.
`C=C1N(S(=O)(=O)c2ccc(C)cc2)C(=O)OC12CCN(Cc1ccccc1)CC2` gave a melting point of 157 to 158 °C.
For `Oc1ccc(-c2nc(-c3ccc(Br)cc3)nc(-c3ccc(O)cc3O)n2)c(O)c1` the value was 222 to 224 °C.
For `COc1cc2c(Nc3ccc(Sc4nccn4C)c(Cl)c3)c(C#N)cnc2cc1NCCCN(C)C` the value was 198 to 200 °C; for `CCCCOc1ccc2nc(C(C)=O)c(O)cc2c1`, 71 to 73 °C; for `CCC(Cl)(CC)C(CO)N=O` (stereo not drawn), 130 °C.
On to `CCNc1ccc2c(c1)CNC2`, for which the melting point lay within 69 to 71 °C.
Under `CCOC(=O)c1c(N2CCN(C(=O)c3ccco3)CC2)c2cc(F)cnc2n(CC(=O)c2ccccc2)c1=O` stands 134 °C; under `CC(C)OC1C=CC(=O)N1` (stereo not drawn), 79 to 81 °C.
Molecule `Clc1cc(CCc2ccccn2)c2oc(-c3cn[nH]c3)nc2c1` showed a melting point of 204 to 208 °C.
For the molecule `CCOC(=O)C=CCCc1cn(C(c2ccccc2)(c2ccccc2)c2ccccc2)cn1`, the melting point lay in the range of 86 to 88 °C.
Take `C(=CCN1C(c2ccccc2)CCCC1c1ccccc1)CN1C(c2ccccc2)CCCC1c1ccccc1` (stereo not drawn): the melting point lay within 197 to 200 °C.
For `CC=CCn1c(C)c(C)c2cnnc(OCc3cccs3)c21` the value was 72 to 75 °C; for `O=C(O)COc1ccc(C(=NO)c2cccs2)c2ccccc12`, 215 °C; for `C=CCOc1ccccc1C1C(C(=O)OCC)=C(C)NC(C#N)=C1C(=O)OCC` (stereo not drawn), 143 to 145 °C.
Take `CC(=O)N1[C@@H](C(=O)O)C(C)(C)S[C@H]1c1ccccc1`: the melting point was in the range of 216 to 217 °C.
With `CC(COc1ccc(Oc2ccccc2)cc1)=NO`, the melting point lay in the range of 59 to 61 °C.
For `COc1ccc2c(C(C)C(=O)OC3CC(=O)NC3=O)cccc2c1` (stereo not drawn) the value was 126 °C; for `Nc1ccn2nc(N3CCCC3)nc2c1`, 221 to 225 °C.
For `CO/C=C(/C(=O)OC)c1ccccc1COc1cccc(Br)n1` the value was 64 to 65 °C; for `O=C(Nc1c([N+](=O)[O-])cc(F)c(Cl)c1F)C(F)(F)F`, 124 to 125 °C; for `Cc1cc2c(s1)C(C(=O)O)CC2=O` (stereo not drawn), 137 to 139 °C.
Take `CN(C)C1Cc2cccc3[nH]c(=S)n(c23)C1` (stereo not drawn): the melting point was in the range of 203 to 205 °C.
Under `COC(=O)c1cn(-c2ncnc3c2ccn3C)c2ncccc12` stands 207 °C; under `Cc1cnc2nc(C(F)(F)F)[nH]c(=O)c2c1`, 270 to 272 °C; under `Cc1cc(-c2nc3ccccc3c(=O)n2-c2ccc(Cl)cc2)cc(C)c1OCCO`, 101 to 103 °C.
Turning to `N#CCOc1cc2c(cc1C#Cc1ccccc1)NC(=O)CC(c1cccc(-n3ccnc3)c1)=N2`, the melting point worked out at 214 °C.
For `CCOC(=O)N1CCn2c(nc(-c3ccncn3)cc2=O)C(NC(=O)c2ccc(-c3cnn(C)c3)cc2)C1` (stereo not drawn) the value was 265 to 267 °C.
For `CS(=O)(=O)Nc1ccccc1SC1CCCCC1`, the melting point is 50 to 51 °C.
As to `NCCOc1ccc2[nH]c3ccccc3c2c1`, the melting point is 145 to 146 °C.
For `CCOC(=O)c1cc(=O)c2cccc(NC(=O)c3ccc4c(c3)CC(COCc3ccccc3)O4)c2o1` (stereo not drawn) the value was 166 to 168 °C.
The molecule `CN(CC(=O)O)C(=S)c1cccc2c(Br)cccc12` displayed a melting point of 181 °C.
For `CNC(=O)c1cccc(Nc2ncnc3[nH]cc(C(=O)c4cccc5ccccc45)c23)c1` the value was greater than 300 °C; for `COC(=O)c1ccc(NCc2ccccc2)cn1`, 104 to 107 °C; for `CCOC(=O)COc1cccc2oc(-c3ccccc3)cc(=O)c12`, 89.5 to 90.5 °C.
For `CCOC(=O)c1cnn2c(-c3ccc(CC)cc3)ccnc12` the value was 101 to 103 °C; for `CCOC(=O)c1cnc(-c2ccccc2)nc1-c1ccc([N+](=O)[O-])cc1`, 138 to 140 °C.
